Experimental data reported in patent US8030352B2, “Method of producing retinyl esters” (Unilever Home & Personal Care USA, division of Conopco, Inc., priority 2002, dated 2011).

Experiment: Retinyl ester stability in moisturising cream formulations (HPLC)
Type: physicochemical
Conditions: 0.03 and 0.15% retinyl ester in cream; stored at 22, 30, 45 and 50° C.; sampled over 35 days; FIGS. 1 and 2
Method: Retinyl Linoleate from National Starch Corp. and the retinyl ester product from example 1 were blended into moisturising cream formulations shown below in Formulations 1 and 2 at a level of 0.03 and 0.15% of the retinyl ester. The creams were stored at 22° C., 30° C., 45° C. and 50° C. and samples taken at time 0, and twice more over 35 days as shown in FIGS. 1 and 2.
The retinyl esters were extracted from the base cream 60/40 acetone/acetonitrile, stirred for 10 minutes, filtered and then injected These were then analysed by HPLC according to the conditions below.
FIGS. 1 and 2 show the stability results for the samples.

## CCCCCCCCCCCCCCCC(=O)OC/C=C(C)/C=C/C=C(C)/C=C/C1=C(C)CCCC1(C)C [retinyl palmitate]
  stability in moisturising cream: only as stable as retinyl linoleate (National Starch)
